The values below come from ChEMBL document CHEMBL4610047, “Design, synthesis and anti-Alzheimer's disease activity study of xanthone derivatives based on multi-target strategy” (Bioorg Med Chem Lett, 2020).

For one experiment, the target named is Acetylcholinesterase (Electrophorus electricus, UniProt O42275). Briefly: Inhibition of electric eel AChE using acetylthiocholine iodide as substrate by Ellman's method. (In Ellman's method for cholinesterases, released thiocholine reacts with DTNB.)
Experiment [1] in a line: Metal chelating activity assessed as compound-Cu2+ complex formation by measuring stability constant at 10 uM in presence of CuCl2 after 30 mins by UV-visible spectrophotometric analysis.
Experiment [2] is described as follows: Metal chelating activity assessed as compound-Cu2+ complex stoichiometry ratio of 2:1 at 10 uM in presence of CuCl2 after 30 mins by UV-visible spectrophotometric analysis.
The target in the next experiment is Cholinesterase (Equus caballus, UniProt P81908). The experiment is described as follows: Inhibition of equine serum BChE using butyrylthiocholine as substrate by Ellman's method.
Sequence of Cholinesterase (P81908 whole entry): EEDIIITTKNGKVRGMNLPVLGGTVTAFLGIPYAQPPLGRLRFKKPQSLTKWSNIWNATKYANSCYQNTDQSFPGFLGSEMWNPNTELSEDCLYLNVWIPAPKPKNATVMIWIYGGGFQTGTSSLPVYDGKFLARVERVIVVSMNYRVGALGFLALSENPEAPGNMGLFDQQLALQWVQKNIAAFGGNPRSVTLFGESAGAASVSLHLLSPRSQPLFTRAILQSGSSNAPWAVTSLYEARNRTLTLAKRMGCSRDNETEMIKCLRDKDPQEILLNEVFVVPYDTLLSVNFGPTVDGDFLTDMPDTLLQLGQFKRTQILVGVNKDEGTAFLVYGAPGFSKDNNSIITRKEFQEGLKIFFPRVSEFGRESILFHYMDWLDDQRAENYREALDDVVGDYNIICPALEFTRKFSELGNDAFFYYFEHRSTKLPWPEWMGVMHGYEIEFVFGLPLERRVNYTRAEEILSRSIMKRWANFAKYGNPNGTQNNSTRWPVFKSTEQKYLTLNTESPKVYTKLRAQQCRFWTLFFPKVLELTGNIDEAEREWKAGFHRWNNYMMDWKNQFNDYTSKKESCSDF
The nature of experiment [3]: Metal chelating activity assessed as compound-Cu2+ complex formation by measuring band wavelength at 10 uM in presence of CuCl2 after 30 mins by UV-visible spectrophotometric analysis.
The target in experiment [4] is Acetylcholinesterase (Electrophorus electricus) (UniProt O42275). The experiment is described as follows: Mixed type inhibition of electric eel AChE assessed as increase in Km at 0.16 to 0.64 uM by reciprocal Lineweaver-Burk plot analysis.
Sequence of Acetylcholinesterase (Electrophorus electricus) (O42275 24-633 limits assumed): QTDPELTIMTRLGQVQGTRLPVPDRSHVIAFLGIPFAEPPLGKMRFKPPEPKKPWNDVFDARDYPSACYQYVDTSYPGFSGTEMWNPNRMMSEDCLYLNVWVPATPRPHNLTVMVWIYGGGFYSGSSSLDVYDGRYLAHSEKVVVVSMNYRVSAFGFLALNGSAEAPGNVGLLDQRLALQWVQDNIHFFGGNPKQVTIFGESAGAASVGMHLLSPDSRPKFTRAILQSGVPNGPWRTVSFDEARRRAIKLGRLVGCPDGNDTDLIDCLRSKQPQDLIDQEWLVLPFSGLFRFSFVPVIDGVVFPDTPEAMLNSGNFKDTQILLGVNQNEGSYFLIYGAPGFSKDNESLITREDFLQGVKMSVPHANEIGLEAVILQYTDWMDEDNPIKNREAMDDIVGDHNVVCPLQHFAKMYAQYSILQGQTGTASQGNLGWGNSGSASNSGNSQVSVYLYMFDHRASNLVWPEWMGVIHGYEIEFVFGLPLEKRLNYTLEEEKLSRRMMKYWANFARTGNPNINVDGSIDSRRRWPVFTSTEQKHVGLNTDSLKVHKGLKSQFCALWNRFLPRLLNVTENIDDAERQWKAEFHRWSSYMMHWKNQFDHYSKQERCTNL
Experiment [5] shares this target. The experiment is described as follows: Mixed type inhibition of electric eel AChE assessed as decrease in Vmax at 0.16 to 0.64 uM by reciprocal Lineweaver-Burk plot analysis.

The source made the active and inactive calls. The calls are words filed in the database; no cut-off is given here.

Sequence of Acetylcholinesterase (O42275 whole entry): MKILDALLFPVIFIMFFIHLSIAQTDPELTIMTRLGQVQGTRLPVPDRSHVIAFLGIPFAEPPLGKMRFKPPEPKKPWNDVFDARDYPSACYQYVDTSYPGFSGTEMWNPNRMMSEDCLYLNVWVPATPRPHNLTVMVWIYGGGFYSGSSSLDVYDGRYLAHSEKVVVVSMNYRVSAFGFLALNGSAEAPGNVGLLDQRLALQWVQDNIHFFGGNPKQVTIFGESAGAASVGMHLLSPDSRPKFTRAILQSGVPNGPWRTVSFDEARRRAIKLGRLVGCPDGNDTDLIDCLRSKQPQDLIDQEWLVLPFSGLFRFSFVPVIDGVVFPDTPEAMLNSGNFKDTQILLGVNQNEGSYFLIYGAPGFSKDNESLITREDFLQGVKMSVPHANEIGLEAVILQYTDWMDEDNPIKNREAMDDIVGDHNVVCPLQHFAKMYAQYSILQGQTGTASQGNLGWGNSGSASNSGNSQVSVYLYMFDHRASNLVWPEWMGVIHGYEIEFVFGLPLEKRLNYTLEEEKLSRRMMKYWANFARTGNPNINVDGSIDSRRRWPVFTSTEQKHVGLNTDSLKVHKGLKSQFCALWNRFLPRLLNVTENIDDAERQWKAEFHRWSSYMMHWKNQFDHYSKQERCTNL

On to `CN(C)CCOc1ccc2c(=O)c3c(O)cc(OCCN(C)C)cc3oc2c1`, for which the IC50 at Acetylcholinesterase was determined as 2.47 µM; at Cholinesterase, 18 µM. For the same compound, the K in experiment [1] turned out to be 1.65 ×10⁵ No_unit. In addition, the result in experiment [2] and in experiment [3] was Active.
As to `O=c1c2ccc(OCCN3CCCCC3)cc2oc2cc(OCCN3CCCCC3)cc(O)c12`, the IC50 worked out at 0.964 µM against Acetylcholinesterase and 4.02 µM against Cholinesterase. Besides, the K in experiment [1] was 2.16 ×10⁵ No_unit. Also, the outcome in experiment [2] and in experiment [3] was Active.
As for `O=c1c2ccc(OCCN3CCCC3)cc2oc2cc(OCCN3CCCC3)cc(O)c12`, the inhibition entry in experiment [4] and in experiment [5] was “Active” throughout. For the same compound, the IC50 turned out to be 0.328 µM on Acetylcholinesterase and 3.7 µM against Cholinesterase. The K in experiment [1] stood at 2.67 ×10⁵ No_unit. Also, the result in experiment [2] and in experiment [3] was Active.
With `O=c1c2ccc(OCCN3CCOCC3)cc2oc2cc(OCCN3CCOCC3)cc(O)c12`, the 50% inhibitory concentration (IC50) is 31.2 µM against Acetylcholinesterase and greater than 300 µM against Cholinesterase. Besides, the K in experiment [1] came out at 1.14 ×10⁵ No_unit. The outcome in experiment [2] and in experiment [3] was Active.

The term IC50 denotes the midpoint of a concentration-inhibition curve. Low readings indicate inhibition by little substance, high ones a need for much substance.
